Experimental data from ChEMBL document CHEMBL5291721, “A preclinical secondary pharmacology resource illuminates target-adverse drug reaction associations of marketed drugs” (Nat Commun, 2023).

What was measured:
Progesterone receptor = target: T1, Progesterone receptor (Homo sapiens, UniProt P06401); type: functional
T1 sequence (P06401 whole entry): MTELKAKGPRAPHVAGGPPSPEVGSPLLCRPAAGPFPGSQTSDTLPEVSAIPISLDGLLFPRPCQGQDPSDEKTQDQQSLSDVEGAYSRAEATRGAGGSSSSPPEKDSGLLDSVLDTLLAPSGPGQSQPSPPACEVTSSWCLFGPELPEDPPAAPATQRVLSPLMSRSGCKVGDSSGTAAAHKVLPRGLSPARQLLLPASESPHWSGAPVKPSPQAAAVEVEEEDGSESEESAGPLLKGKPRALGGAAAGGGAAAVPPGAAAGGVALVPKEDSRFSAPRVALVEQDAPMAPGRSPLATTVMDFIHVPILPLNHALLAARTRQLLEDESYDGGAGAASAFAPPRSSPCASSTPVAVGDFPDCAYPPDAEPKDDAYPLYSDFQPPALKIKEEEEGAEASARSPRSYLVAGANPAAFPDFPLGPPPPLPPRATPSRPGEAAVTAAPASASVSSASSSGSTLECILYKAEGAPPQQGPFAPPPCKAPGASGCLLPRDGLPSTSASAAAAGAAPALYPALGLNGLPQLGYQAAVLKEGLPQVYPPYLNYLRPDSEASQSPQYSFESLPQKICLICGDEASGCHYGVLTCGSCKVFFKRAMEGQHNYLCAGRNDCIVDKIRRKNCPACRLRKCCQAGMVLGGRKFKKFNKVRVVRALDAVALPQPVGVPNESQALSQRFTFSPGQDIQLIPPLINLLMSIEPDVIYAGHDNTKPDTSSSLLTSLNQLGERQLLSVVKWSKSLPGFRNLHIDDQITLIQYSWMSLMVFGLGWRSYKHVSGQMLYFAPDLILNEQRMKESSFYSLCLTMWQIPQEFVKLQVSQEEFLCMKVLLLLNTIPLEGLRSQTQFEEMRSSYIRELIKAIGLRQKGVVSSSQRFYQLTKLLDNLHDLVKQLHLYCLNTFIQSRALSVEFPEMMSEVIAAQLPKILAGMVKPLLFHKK

[1] = target: T2, Type-1 angiotensin II receptor (Homo sapiens, UniProt P30556)
T2 sequence (P30556 whole entry): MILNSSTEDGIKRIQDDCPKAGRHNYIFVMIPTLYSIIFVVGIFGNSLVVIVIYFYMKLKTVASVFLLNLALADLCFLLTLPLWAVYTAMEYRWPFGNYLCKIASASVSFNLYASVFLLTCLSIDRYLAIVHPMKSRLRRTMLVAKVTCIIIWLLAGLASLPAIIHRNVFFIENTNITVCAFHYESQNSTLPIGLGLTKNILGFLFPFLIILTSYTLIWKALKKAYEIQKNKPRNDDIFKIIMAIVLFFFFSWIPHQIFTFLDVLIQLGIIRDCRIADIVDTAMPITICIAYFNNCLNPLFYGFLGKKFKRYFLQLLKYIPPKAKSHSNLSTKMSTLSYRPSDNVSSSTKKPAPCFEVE

D(3) dopamine receptor = D(3) dopamine receptor (Homo sapiens, UniProt P35462)
[2] = target: Kappa-type opioid receptor (Homo sapiens, UniProt P41145)
Adenosine receptor A2a = Adenosine receptor A2a (Homo sapiens, UniProt P29274)
[3] = target: T3, 5-hydroxytryptamine receptor 1A (Homo sapiens, UniProt P08908); type: functional, cell-based
T3 sequence (P08908 whole entry): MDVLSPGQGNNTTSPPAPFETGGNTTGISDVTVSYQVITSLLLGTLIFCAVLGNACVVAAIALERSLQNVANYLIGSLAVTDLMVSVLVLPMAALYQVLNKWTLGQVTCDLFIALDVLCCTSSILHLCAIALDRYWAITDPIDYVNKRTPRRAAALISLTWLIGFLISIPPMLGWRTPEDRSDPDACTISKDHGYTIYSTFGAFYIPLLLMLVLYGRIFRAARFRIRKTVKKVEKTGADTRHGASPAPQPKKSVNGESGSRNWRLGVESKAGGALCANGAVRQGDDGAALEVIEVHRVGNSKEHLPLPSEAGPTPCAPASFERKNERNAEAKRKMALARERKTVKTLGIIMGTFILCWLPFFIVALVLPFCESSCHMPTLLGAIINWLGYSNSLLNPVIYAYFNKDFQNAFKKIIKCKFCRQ

[4] = target: T4, Equilibrative nucleoside transporter 1 (Homo sapiens, UniProt Q99808)
T4 sequence (Q99808 whole entry): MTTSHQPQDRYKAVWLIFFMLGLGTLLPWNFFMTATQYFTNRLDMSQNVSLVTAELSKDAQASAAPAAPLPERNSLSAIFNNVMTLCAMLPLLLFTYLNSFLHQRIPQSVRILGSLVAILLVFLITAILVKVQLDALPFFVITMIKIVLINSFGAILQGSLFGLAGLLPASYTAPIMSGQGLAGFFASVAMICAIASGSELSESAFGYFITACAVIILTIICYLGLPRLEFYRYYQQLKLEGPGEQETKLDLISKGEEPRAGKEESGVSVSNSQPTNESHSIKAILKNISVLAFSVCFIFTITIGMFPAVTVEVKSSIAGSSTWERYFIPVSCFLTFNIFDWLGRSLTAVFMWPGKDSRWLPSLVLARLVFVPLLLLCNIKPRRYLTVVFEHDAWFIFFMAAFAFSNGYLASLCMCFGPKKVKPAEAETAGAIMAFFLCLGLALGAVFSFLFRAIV

[5] = target: Gamma-aminobutyric acid receptor subunit alpha-1 (Rattus norvegicus, UniProt P62813)
[6] = target: Beta-1 adrenergic receptor (Homo sapiens, UniProt P08588); type: functional
[7] = target: T5, 5-hydroxytryptamine receptor 3A (Homo sapiens, UniProt P46098); type: functional
T5 sequence (P46098 whole entry): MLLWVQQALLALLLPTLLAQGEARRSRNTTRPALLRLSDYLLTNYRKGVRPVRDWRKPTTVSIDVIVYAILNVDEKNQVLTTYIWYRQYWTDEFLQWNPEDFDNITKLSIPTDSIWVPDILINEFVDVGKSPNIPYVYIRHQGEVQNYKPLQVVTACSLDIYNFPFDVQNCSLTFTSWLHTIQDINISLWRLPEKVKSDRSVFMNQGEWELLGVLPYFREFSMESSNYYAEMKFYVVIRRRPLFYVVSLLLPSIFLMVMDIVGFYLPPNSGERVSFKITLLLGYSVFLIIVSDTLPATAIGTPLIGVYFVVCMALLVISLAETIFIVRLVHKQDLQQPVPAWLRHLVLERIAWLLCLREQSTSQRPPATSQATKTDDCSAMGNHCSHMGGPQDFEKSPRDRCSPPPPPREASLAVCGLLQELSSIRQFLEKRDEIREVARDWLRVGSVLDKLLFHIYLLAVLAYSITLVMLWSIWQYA
Also: assay procedure not described here.

Chain of D(3) dopamine receptor (P35462 whole entry): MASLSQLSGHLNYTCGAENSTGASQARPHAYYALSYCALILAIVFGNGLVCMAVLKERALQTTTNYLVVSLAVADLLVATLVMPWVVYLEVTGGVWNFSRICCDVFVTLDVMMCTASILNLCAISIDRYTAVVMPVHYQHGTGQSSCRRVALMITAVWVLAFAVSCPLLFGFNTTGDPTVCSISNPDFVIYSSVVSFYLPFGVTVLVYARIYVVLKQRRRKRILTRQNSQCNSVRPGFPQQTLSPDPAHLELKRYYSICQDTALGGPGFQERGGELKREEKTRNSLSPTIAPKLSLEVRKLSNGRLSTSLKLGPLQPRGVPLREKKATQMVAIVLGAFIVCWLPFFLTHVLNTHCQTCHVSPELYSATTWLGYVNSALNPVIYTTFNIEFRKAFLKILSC
Chain of Kappa-type opioid receptor (P41145 whole entry): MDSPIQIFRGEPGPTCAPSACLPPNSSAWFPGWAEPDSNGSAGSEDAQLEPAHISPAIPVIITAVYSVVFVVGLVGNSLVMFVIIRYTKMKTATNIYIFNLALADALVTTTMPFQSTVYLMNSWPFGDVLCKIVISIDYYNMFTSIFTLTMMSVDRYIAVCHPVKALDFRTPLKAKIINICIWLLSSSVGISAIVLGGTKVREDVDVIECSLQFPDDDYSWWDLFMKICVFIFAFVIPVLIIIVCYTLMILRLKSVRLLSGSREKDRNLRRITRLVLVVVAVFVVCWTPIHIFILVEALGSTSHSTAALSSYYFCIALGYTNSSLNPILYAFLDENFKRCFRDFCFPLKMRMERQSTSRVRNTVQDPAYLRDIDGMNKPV
Chain of Gamma-aminobutyric acid receptor subunit alpha-1 (P62813 whole entry): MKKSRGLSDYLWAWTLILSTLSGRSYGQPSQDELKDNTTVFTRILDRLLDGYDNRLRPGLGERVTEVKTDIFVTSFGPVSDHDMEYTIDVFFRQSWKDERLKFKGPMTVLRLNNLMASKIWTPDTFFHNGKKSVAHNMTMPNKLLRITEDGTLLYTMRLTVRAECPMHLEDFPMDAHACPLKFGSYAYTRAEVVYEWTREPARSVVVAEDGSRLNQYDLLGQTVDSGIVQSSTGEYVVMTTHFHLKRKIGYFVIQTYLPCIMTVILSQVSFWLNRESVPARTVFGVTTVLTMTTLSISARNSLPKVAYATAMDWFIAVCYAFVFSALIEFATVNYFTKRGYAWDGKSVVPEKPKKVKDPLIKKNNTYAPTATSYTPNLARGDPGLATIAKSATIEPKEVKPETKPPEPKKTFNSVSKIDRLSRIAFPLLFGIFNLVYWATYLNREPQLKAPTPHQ
Chain of Beta-1 adrenergic receptor (P08588 whole entry): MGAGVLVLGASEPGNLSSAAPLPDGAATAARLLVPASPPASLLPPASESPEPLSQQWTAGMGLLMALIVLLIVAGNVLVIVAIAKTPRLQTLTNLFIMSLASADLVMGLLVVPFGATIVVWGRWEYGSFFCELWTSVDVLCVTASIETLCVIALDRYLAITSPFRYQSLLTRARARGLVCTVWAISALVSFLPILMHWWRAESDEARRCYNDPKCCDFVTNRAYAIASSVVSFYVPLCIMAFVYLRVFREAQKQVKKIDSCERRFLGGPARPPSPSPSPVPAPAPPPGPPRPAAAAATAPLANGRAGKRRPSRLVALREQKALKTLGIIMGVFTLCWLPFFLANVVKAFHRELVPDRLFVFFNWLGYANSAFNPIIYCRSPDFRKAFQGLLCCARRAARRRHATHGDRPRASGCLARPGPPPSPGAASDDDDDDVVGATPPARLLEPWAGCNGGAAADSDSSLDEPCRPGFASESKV
Chain of Adenosine receptor A2a (P29274 whole entry): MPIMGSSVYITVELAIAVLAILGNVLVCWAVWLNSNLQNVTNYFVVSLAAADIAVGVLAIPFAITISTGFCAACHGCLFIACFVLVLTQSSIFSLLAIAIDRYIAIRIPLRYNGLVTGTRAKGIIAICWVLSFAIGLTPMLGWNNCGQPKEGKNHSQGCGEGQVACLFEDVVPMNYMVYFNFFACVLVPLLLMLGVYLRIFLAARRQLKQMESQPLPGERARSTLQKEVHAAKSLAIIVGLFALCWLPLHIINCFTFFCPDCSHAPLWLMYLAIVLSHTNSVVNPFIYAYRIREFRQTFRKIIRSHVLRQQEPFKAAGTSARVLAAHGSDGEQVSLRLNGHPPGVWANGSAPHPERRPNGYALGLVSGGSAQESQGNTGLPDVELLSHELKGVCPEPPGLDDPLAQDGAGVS

| Structure (SMILES) | AC50 (Progesterone receptor) [µM] | AC50 [1] [µM] | AC50 (D(3) dopamine receptor) [µM] | AC50 [2] [µM] | AC50 (Adenosine receptor A2a) [µM] | AC50 [3] [µM] | AC50 [4] [µM] | AC50 [5] [µM] | AC50 [6] [µM] | AC50 [7] [µM] |
| --- | --- | --- | --- | --- | --- | --- | --- | --- | --- | --- |
| CC(C)N(CCCCOCC(=O)O)c1cnc(-c2ccccc2)c(-c2ccccc2)n1 | > 30 | 17 | > 30 | > 30 | > 30 | > 30 | > 30 | > 30 | > 30 | > 30 |
| CC(=O)c1ccc(S(=O)(=O)NC(=O)NC2CCCCC2)cc1 [ACETOHEXAMIDE] | > 10 | > 10 | > 30 | > 10 | > 10 | > 30 | > 10 | > 10 | > 10 | > 30 |
| COc1cc(C)c(/C=C/C(C)=C/C=C/C(C)=C/C(=O)O)c(C)c1C [ACITRETIN] | > 30 | > 10 | > 30 | > 10 | > 10 | > 10 | > 10 | > 10 | > 10 | > 30 |
| CCC1(CCC(C)C)C(=O)NC(=O)NC1=O [AMOBARBITAL] | > 10 | > 10 | > 30 | > 10 | > 10 | > 10 | > 10 | > 10 | > 10 | > 30 |
| COc1ccc(C2C(=O)c3ccccc3C2=O)cc1 [ANISINDIONE] | > 30 | > 10 | > 30 | > 10 | > 10 | > 10 | > 10 | > 10 | > 10 | > 30 |
| O=C(O)CCNC(=O)c1ccc(/N=N/c2ccc(O)c(C(=O)O)c2)cc1 [BALSALAZIDE] | > 30 | 27.6 | > 30 | > 30 | 33.1 | > 30 | 30 | > 30 | > 30 | 15 |
| O=C(O)c1ccc(NC(=O)[C@H](Cc2ccc(O)cc2)NC(=O)c2ccccc2)cc1 [BENTIROMIDE] | > 10 | > 10 | > 30 | > 10 | > 10 | > 10 | > 10 | > 10 | > 10 | > 30 |
| NS(=O)(=O)c1cc2c(cc1Cl)N=C(CSCc1ccccc1)NS2(=O)=O [BENZTHIAZIDE] | > 30 | > 10 | > 30 | > 10 | > 10 | > 10 | > 10 | > 10 | > 10 | > 10 |
| CCOC(=O)c1ncn2c1CN(C)C(=O)c1cc(F)ccc1-2 [FLUMAZENIL] | > 30 | > 30 | > 30 | > 30 | > 30 | > 30 | > 30 | – | > 30 | > 30 |
| CN1CCN=C(c2ccccc2)c2cc(Cl)ccc21 [MEDAZEPAM] | > 30 | > 30 | > 30 | 0.99 | > 30 | > 30 | – | > 30 | > 30 | > 30 |
| O=c1[nH]c2ccccc2n1CCCN1CCN(C(c2ccccc2)c2ccccc2)CC1 [OXATOMIDE] | > 30 | 17 | 0.13 | 13 | > 30 | > 30 | – | > 30 | > 30 | > 30 |
| C[C@]12C/C(=C/O)C(=O)C[C@@H]1CC[C@@H]1[C@@H]2CC[C@@]2(C)[C@H]1CC[C@]2(C)O [OXYMETHOLONE] | 23 | 15 | > 30 | > 30 | > 30 | > 30 | – | > 30 | > 30 | > 30 |
| c1ccc(C2(N3CCCCC3)CCCCC2)cc1 [PHENCYCLIDINE] | > 30 | > 30 | > 30 | > 30 | > 30 | > 30 | > 30 | – | > 30 | > 30 |
| CC1=C(/C=C/C(C)=C/C=C/C(C)=C/CO)C(C)(C)CCC1 [RETINOL] | > 30 | > 30 | > 30 | – | > 10 | > 10 | > 10 | > 10 | > 10 | > 30 |
| CCN1CCCC1CNC(=O)c1cc(S(=O)(=O)CC)ccc1OC (stereo not given) [SULTOPRIDE] | > 30 | > 30 | > 30 | > 30 | > 30 | > 30 | – | > 30 | > 30 | > 30 |
| CCOC(=O)[C@@H](N)Cc1ccc(-c2cc(O[C@H](c3ccc(Cl)cc3-n3ccc(C)n3)C(F)(F)F)nc(N)n2)cc1 [TELOTRISTAT ETHYL] | > 30 | 11 | > 30 | > 30 | > 30 | – | > 30 | > 30 | > 30 | 24 |
| CC(C)(C)NCC(O)c1ccccc1Cl (stereo not given) [TULOBUTEROL] | > 30 | > 30 | > 30 | > 30 | > 30 | > 30 | – | > 30 | – | > 30 |
